Data set [1] in a line: Similar reaction run in the absence of enzyme (toluene / pH 7 buffer). Format: physicochemical. The conditions noted are these: for hydrolysis in the absence of enzyme: after 3 days; for hydrolysis in the absence of the enzyme: toluene / aqueous pH 7 buffer, time not stated. The procedure:
Resveratrol tris(methyl carbonate) (100 mg; 0.249 mmol) was dissolved in 2 mL of toluene. […]
Hydroxytyrosol tris(methyl carbonate) (3, R=Me, 100 mg; 0.305 mmol) was dissolved in 2 mL of toluene. […]

Data set [2] is described as follows: Solubility in solvents. Format: physicochemical.
The target in data set [3] is Novozym 435 (immobilized Candida Antarctica lipase B) (Moesziomyces antarcticus, UniProt P41365). As to the kind of experiment: Enzymatic hydrolysis with Novozym 435 in toluene / pH 7 buffer, HPLC analysis. Conditions: for enzymatic hydrolysis: lipase, biphasic mixture of toluene and aqueous pH 7 buffer, time not stated. As for the experimental part:
Resveratrol tris(methyl carbonate) (100 mg; 0.249 mmol) was dissolved in 2 mL of toluene. 2 mL of pH 7 buffer was added followed by 100 mg of Novozym 435 (immobilized Candida Antarctica lipase B).
2 mL of pH 7 buffer was added followed by 100 mg of Novozym 435 (immobilized Candida Antarctica lipase B).
Resveratrol tripalmitate (100 mg; 0.11 mmol) was dissolved in 2 mL of toluene. 2 mL of pH 7 buffer was added followed by 100 mg of Novozym 435 (immobilized Candida Antarctica lipase B).
1 mL of pH 7 buffer was added followed by 100 mg of Novozym 435 (immobilized Candida Antarctica lipase B).
Hydroxytyrosol tris(methyl carbonate) (3, R=Me, 100 mg; 0.305 mmol) was dissolved in 2 mL of toluene. 2 mL of pH 7 buffer was added followed by 100 mg of Novozym 435 (immobilized Candida Antarctica lipase B).
Hydroxytyrosol trihexanoate containing 1.9% hydroxytyrosol by HPLC analysis (100 mg; 0.22 mmol) was dissolved in 2 mL of toluene. 2 mL of pH 7 buffer was added followed by 100 mg of Novozym 435 (immobilized Candida Antarctica lipase B).

Where [4] appears, read: 1 day, ambient temperature, top layer only.
[5] abbreviates: 3 days, ambient temperature, toluene/pH 7 buffer.
Where [6] appears, read: 24 h, ambient temperature, equal volumes of both layers.
[7] abbreviates: 48 h, ambient temperature (trihexanoate contained 1.9% hydroxytyrosol at start).
The mark [8] stands for this setting: 22 h, ambient temperature, toluene/pH 7 buffer, equal volumes of both layers.

Novozym 435 (immobilized Candida Antarctica lipase B), sequence (P41365 26-342): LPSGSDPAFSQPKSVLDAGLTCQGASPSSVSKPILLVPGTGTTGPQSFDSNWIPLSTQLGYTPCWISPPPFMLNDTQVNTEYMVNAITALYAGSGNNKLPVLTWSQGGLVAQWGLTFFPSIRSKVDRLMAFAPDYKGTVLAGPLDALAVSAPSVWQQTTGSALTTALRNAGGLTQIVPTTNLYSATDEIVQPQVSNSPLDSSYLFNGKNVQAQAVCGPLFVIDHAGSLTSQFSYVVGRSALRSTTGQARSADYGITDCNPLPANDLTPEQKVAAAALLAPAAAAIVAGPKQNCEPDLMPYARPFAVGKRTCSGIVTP

As for “4-Hydroxybenzyl Alcohol bis(butyl carbonate)”, in data set [1] (toluene/pH 7 buffer), the “hydrolysis in the absence of enzyme” value is listed as “no detectable hydrolysis”.

In the case of `OCc1ccc(O)cc1` [4-hydroxybenzyl alcohol, 4-Hydroxybenzyl alcohol], the “solubility in toluene and water” value in data set [2] is “insolubility in both toluene and water”.

`CCCCOC(=O)Oc1ccc(/C=C/c2cc(OC(=O)OCCCC)cc(OC(=O)OCCCC)c2)cc1` [Resveratrol tris(butyl carbonate)]: in data set [3] (setting [4]), the “resveratrol bis(butyl carbonate) by HPLC analysis” value came out at 41% and the “resveratrol tris(butyl carbonate) remaining by HPLC analysis” value is 59%. Further, in data set [3] (setting [5]), the “resveratrol bis/di(alkyl carbonate) or dipalmitate by HPLC analysis” value is recorded as 41%, the “resveratrol by HPLC analysis” value amounted to 35%, the “resveratrol mono(alkyl carbonate) by HPLC analysis” value came to 5% and the “unchanged starting tris(alkyl carbonate) or tripalmitate by HPLC analysis” value is reported as 19%. The “enzymatic hydrolysis” value in data set [3] is “undergo hydrolysis of the carbonate to afford dicarbonates, monocarbonates, and the parent triphenol”. Moreover, the “hydrolysis in the absence of the enzyme” value in data set [1] is listed as “no observed hydrolysis”.

Regarding `COC(=O)OCCc1ccc(OC(=O)OC)c(OC(=O)OC)c1` [Hydroxytyrosol tris(methyl carbonate)], in data set [3] (setting [6]), the “hydroxytyrosol by HPLC analysis” value came out at 74%; the “mono- and di-carbonates by HPLC analysis” value is 1.5%; the “unchanged hydroxytyrosol tris(methyl carbonate) by HPLC analysis” value is reported as 17%. Besides, in data set [3] (48 h, ambient temperature), the “mono- and di-carbonates by HPLC analysis” value amounted to 5%; the “unchanged starting tris(methyl carbonate) or trihexanoate by HPLC analysis” value turned out to be 3%. In data set [3] (setting [7]), the “hydroxytyrosol by HPLC analysis” value is 92%. The “hydrolysis to hydroxytyrosol in the absence of enzyme” value in data set [1] (after 2 days, toluene/pH 7 buffer) is on record as “no detectable hydrolysis to hydroxytyrosol”.

With `CCCCCC(=O)OCCc1ccc(OC(=O)CCCCC)c(OC(=O)CCCCC)c1` [Hydroxytyrosol trihexanoate, Hydroxytyrosol Trihexanoate, reference compound], in data set [3] (48 h, ambient temperature), the “3,4-di(hexanoyl)phenylethanol by HPLC analysis” value came to 18.7% and the “unchanged starting tris(methyl carbonate) or trihexanoate by HPLC analysis” value amounted to 72.3%. For the same molecule, the “hydroxytyrosol by HPLC analysis” value in data set [3] (setting [7]) was determined as 2.5%.

For `COC(=O)Oc1ccc(/C=C/c2cc(OC(=O)OC)cc(OC(=O)OC)c2)cc1` [Resveratrol tris(methyl carbonate)], in data set [3] (setting [8]), the “resveratrol bis(methyl carbonate) by HPLC analysis” value worked out at 15.8%, the “resveratrol by HPLC analysis” value was found to be 23.75%, the “resveratrol mono(methyl carbonate) by HPLC analysis” value came to 52.9% and the “resveratrol tris(methyl carbonate) remaining by HPLC analysis” value is 7.0%. Moreover, in data set [3] (setting [5]), the “resveratrol bis/di(alkyl carbonate) or dipalmitate by HPLC analysis” value was determined as 0.6%, the “resveratrol by HPLC analysis” value is given as 63.8%, the “resveratrol mono(alkyl carbonate) by HPLC analysis” value amounted to 35.1% and the “unchanged starting tris(alkyl carbonate) or tripalmitate by HPLC analysis” value is “no detectable”. The “enzymatic hydrolysis” value in data set [3] was “undergo hydrolysis of the carbonate to afford dicarbonates, monocarbonates, and the parent triphenol”. Besides, in data set [1] (toluene/pH 7 buffer), the “hydrolysis in the absence of enzyme” value is “no detectable hydrolysis”. In addition, the “hydrolysis in the absence of the enzyme” value in data set [1] is “no observed hydrolysis”.

As for `CCCCCCCCCCCCCCCC(=O)Oc1ccc(C=Cc2cc(OC(=O)CCCCCCCCCCCCCCC)cc(OC(=O)CCCCCCCCCCCCCCC)c2)cc1` [Resveratrol tripalmitate, Resveratrol Tripalmitate, reference compound], in data set [3] (setting [5]), the “extent of enzymatic hydrolysis” value is “minimal hydrolysis” and the “unchanged starting tris(alkyl carbonate) or tripalmitate by HPLC analysis” value was 89%. Moreover, the “enzymatic hydrolysis” value in data set [3] is reported as “minimal hydrolysis”.
